From patent publication US10660933B2, “Compositions and methods for inhibition of bacterial infections in human endocervix” (priority 2015, dated 2020)

How the values were obtained:
polarized T84 cells [1] = assay: Ng-induced exfoliation of polarized T84 monolayers (3D-CFM); assay type: cell-based, human; conditions: MS11ΔOpa, 6 h; inhibitor 1 h before and during; ML-7 10 μM, PIK 100 μM, Y27632 10 μM, 2APB 10 μM
Source text: To quantify epithelial exfoliation, the number of Ng associated cells localized on the top of the epithelial monolayer (exfoliated) and the total number of Ng associated epithelial cells was counted by visual inspection in each randomly acquired image, to determine the percentage of exfoliated cells. To estimate the level of Ng penetration into the subepithelium, the number of non-exfoliated epithelial cells (in clearly visible epithelial monolayers) with basal Ng staining and the total number of Ng associated epithelial cells were visually counted to calculate the percentage of infected epithelial cells with Ng penetration into the basolateral side. To evaluate the disruption of the apical junction, the number of Ng associated epithelial cells that lost continuously apical staining of the junctional protein ZO1 and the total number of Ng associated epithelial cells were visually counted to calculate the percentage of Ng associated epithelial cells with apical junction disassembly. To quantify the redistribution of pMLC, the fluorescence intensity ratios (FIR) of pMLC staining at the apical to lateral in individual epithelial cells were determined using average FI as previously described.
(§1) Immunofluorescence analysis of polarized epithelial cells. Cells were pretreated with or without NMII kinase inhibitors, Y27632 (10 μM, EMD Millipore), ML-7 (10 μM, EMD Millipore) and PIK (100 μM) or Ca2+ inhibitors, 2APB (10 μM, EMD Millipore) and BAPTA (50 μM, EMD Millipore) for 1 h, and incubated with Ng in the presence or absence of the inhibitors for 6 h. Cell were washed and fixed with 4% paraformaldehyde, permeabilized with 1% Triton X100, and stained with anti-E-cadherin (BD Bioscience), anti-pMLC (Cell Signaling Technology, Carlsbad, Calif.), anti-Ng antibodies, and DAPI for nuclei. Cells were analyzed by CFM. Images were acquired as Z-series of 0.37 μm slices, and 3D composites obtained. Epithelial exfoliation will be quantified using xz images as described for the tissue explants. The distribution of E-cadherin and pMLC was quantitatively analyzed by measuring the FIR at the apical junctional to the cytoplasmic area (from xy images) or at the apical to lateral surface area (from xz images) in individual cells.

polarized T84 cells [2] = assay: Exfoliation of polarized T84 cells treated with inhibitors alone, without Ng; assay type: cell-based, human; conditions: no Ng inoculation, 6 h
Method: Polarized T84 cells were treated with inhibitors for 6 h, fixed, stained to visualize the cell nuclei, and imaged by 3D-CFM. The percentage of cell moving above the epithelial monolayer (dash lines) was determined from three independent experiments. Scale bar, 5 μm. *p≤0.05.
as §1

[3] = system: Neisseria gonorrhoeae MS11; assay: Ng adherence, invasion, and transmigration assays on polarized epithelial cells; assay type: cell-based; conditions: for transmigration of MS11ΔOpa across the polarized T84 monolayer / Ng invasion into polarized T84 cells (gentamicin resistance): 6 h; for transmigration of MS11ΔOpa across the polarized T84 monolayer: ML-7 10 μM, PIK 100 μM, 2APB 10 μM, Y27632 10 μM; for Ng adherence to polarized T84 cells / Ng invasion into polarized T84 cells (gentamicin resistance): MS11ΔOpa, with inhibitors; for Ng adherence to polarized T84 cells: 3 h
Method: Ng adherence, invasion, and transmigration assays. The assays were performed as previously described. Briefly, polarized epithelial cells that were pretreated with or without the inhibitors for 1 h were incubated apically with Ng at 37° C. for 3 h for adherence and 6 h for invasion and transmigration assays with or without the inhibitors. Ng in the basolateral media were cultured and counted as transmigrated bacteria. Cells were washed and lysed to count adherent Ng. Cells were treated with gentamicin, washed, and lysed to count bacteria that were resistant to gentamicin treatment as invaded Ng.

E-cadherin = E-cadherin distribution at the apical junction of Ng-inoculated polarized T84 cells; assay type: cell-based, human; conditions: polarized T84, Ng 6 h; ML-7 10 μM, 2APB 10 μM, Y27632 10 μM
Source text: Ng-induced junction disassembly requires NMII activation and Ca^2+ flux but is suppressed by Opa. The linkage between the efficiency of Ng penetration into the epithelium with Ng induced epithelial exfoliation and apical junction disruption shown here and previously implicate Ng induced junction disruption as an underlying cause of epithelial exfoliation. To test this hypothesis, we determined whether Opa expression and the MLCK and Ca^2+ inhibitors, which all inhibited Ng induced epithelial exfoliation, also prevent Ng from disrupting the apical junction. The structural integrity of the apical junction was evaluated by analyzing the distribution of E-cadherin using immunofluorescence (IFM) and 3D-CFM and quantifying the fluorescence intensity ratio (FIR) of E-cadherin at the cytoplasm to that at the apical junction. In polarized T84 cells that were not inoculated with Ng, E-cadherin staining was primarily localized at the apical junction (FIG. 4A, top panels). […]
Immunofluorescence analysis of polarized epithelial cells. […] Cells were analyzed by CFM. […] Epithelial exfoliation will be quantified using xz images as described for the tissue explants. The distribution of E-cadherin and pMLC was quantitatively analyzed by measuring the FIR at the apical junctional to the cytoplasmic area (from xy images) or at the apical to lateral surface area (from xz images) in individual cells.

[4] = system: phosphorylated myosin light chain (pMLC); assay: pMLC (active NMII) redistribution in Ng-inoculated polarized T84 cells (3D-CFM); assay type: cell-based, human; conditions: for accumulation of pMLC at Ng adherent sites / apical:lateral FIR of pMLC: polarized T84, Ng 6 h; for junction:non-junction FIR of pMLC: polarized T84, Ng 6 h (Y27632: MS11ΔOpa); for junction:non-junction FIR of pMLC / apical:lateral FIR of pMLC: ML-7 10 μM, PIK 100 μM, Y27632 10 μM, 2APB 10 μM, BAPTA 50 μM
Method: Ng induce and Opa suppresses the redistribution of active non-muscle myosin II in polarized and endocervical epithelial cells. […] We examined the cellular distribution of active NMII after 6-h incubation with Ng, using antibody specific for phosphorylated myosin light chain (pMLC) and 3D-CFM. In uninfected polarized T84 (FIGS. 5A and 5C) and HEC-1-B cells (FIG. 10), pMLC was primarily localized at the apical junction. The polarized distribution of pMLC at the apical surface was quantified by the FIR of pMLC at the apical to the lateral (Apical:Lateral) membrane areas in individual cells using CFM images scanning across the apical and basolateral surfaces (FIGS. 5A and 5B). The polarized distribution pMLC at the apical junction was quantified by the FIR of pMLC at the junction to non-junction (Junction:Non-junction) areas of the apical region using CFM images scanning through the apical junction (FIGS. 5C and 5D). The apical inoculation of MS11Opa+ and MS11ΔOpa caused significant increases in apical:lateral FIR in both polarized T84 (FIGS. 5A and 5B) and HEC-1-B cells (FIG. 10), compared to the no Ng control. There were also significant increases in the junction:non-junction FIR in infected polarized T84 cells, compared to non-infected cells (FIGS. 5C and 5D). […] We further noticed that NMII at the apical surface appeared to accumulate at Ng adherent sites (FIG. 5A, middle panels, arrows).
as §1

SMILES | exfoliation of MS11ΔOpa-infected epithelial cells from T84 monolayers (polarized T84 cells [1]) | epithelial exfoliation with inhibitors alone (polarized T84 cells [2]) | transmigration of MS11ΔOpa across the polarized T84 monolayer [3] | Ng adherence to polarized T84 cells [3] | Ng invasion into polarized T84 cells (gentamicin resistance) [3] | punctuate cytoplasmic staining and cytoplasm:junction FIR of E-cadherin (E-cadherin) | accumulation of pMLC at Ng adherent sites [4] | junction:non-junction FIR of pMLC [4] | apical:lateral FIR of pMLC [4]
NCCOB(c1ccccc1)c1ccccc1 [2APB] | reduced the exfoliation of polarized T84 cells to the level similar to ML-7 and PIK | did not affect epithelial exfoliation | significantly reduced the transmigration | none of these inhibitors had any significant effect | none of these inhibitors had any significant effect | decreased the punctuate staining of E-cadherin in the cytoplasm and the cytoplasm:junction FIR of E-cadherin to or below the control level | decreased | decreased | decreased
O=S(=O)(c1cccc2c(I)cccc12)N1CCCNCC1 [ML-7] | reduced the exfoliation | did not affect epithelial exfoliation | significantly reduced the transmigration | none of these inhibitors had any significant effect | none of these inhibitors had any significant effect | decreased the punctuate staining of E-cadherin in the cytoplasm and the cytoplasm:junction FIR of E-cadherin to or below the control level | significantly reduced | significantly reduced | significantly reduced
